Reference: patent US6194173A, “Binding proteins for phosphoinositides, GRP1 or general receptor 1 for phophoinositide” (priority 1999, dated 2001)
“Also recorded” adds a separate entry of the source.

T1: GRP (Mus musculus, UniProt O08967)
T1 construct: GST (N, cleaved yes); made in house; host or cells: GRP from pGEX-4T; ARF1 from baculovirus-infected Sf-9 cells
T1 sequence (O08967 1-399): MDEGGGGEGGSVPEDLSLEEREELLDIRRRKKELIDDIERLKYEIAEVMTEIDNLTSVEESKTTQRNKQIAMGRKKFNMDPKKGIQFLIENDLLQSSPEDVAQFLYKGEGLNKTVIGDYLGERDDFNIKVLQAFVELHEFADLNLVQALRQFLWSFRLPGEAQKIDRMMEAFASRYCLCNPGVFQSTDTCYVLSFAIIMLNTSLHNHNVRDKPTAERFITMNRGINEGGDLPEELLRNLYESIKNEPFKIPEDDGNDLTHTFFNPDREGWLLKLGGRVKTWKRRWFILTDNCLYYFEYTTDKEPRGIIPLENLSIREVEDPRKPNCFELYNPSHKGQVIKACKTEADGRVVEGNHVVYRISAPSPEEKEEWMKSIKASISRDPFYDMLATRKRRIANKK

T2: PH domain of GRP (Mus musculus, UniProt O08967)
T2 sequence (O08967 239-399): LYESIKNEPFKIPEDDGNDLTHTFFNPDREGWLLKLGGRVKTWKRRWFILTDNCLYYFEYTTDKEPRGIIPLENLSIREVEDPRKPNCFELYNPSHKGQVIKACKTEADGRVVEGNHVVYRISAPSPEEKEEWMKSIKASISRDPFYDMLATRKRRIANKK


Experiments:
GRP = target: T1, GRP; assay: Effect of phosphoinositides on GRP-catalyzed ARF1 guanine nucleotide exchange; type: biochemical; settings: 25 μM lipid, 0.15 μM GRP
ARNO = settings: vesicles with high concentrations of negatively charged phospholipids; cited from earlier work
PH domain of PLCγ1 = settings: cited from earlier work
PH domain of GRP = target: T2, PH domain of GRP; assay: Competition for [3H]dioctanoyl PtdIns(3,4,5)P3 binding to the PH domain of GRP; design: GST fused to the PH region of GRP (amino acids 239-399); made in house; host or cells: bacteria; settings: FIG. 9B
Experimental: Binding assays were performed as described in (Rameh, L. E. et al., J. Biol. Chem., In Press). Briefly, GST fused to the PH region of GRP (amino acids 239-399) was bound to glutathione immobilized on agarose beads (Sigma). Synthetic [^3 H]-labeled diotanoyl PtdIns(3,4,5)P3 was added, and after one hour the beads were separated from the supernatant by centrifugation. The amount of [^3 H]-PtdIns(3,4,5)P3 bound to the PH domain was calculated by subtracting the amount of free [^3 H] present in supernatants from GST-GRP from the amount of free [^3 H] in supernatants from control GST. The data was fitted to the equation [bound]=Bmax×[free]/(KD + [free]) by least squares curve fit. For the competition assays the beads containing the GST-fusion proteins were incubated with 2.5 μM[^3 H]-labeled dioctanoyl PtdIns(3,4,5)P3 bound was calculated based on the amount of [^3 H] bound to the beads in the absence of competitor. The total [^3 H] bound to the GST control was less then 0.5% of the total [^3 H] bound to GRP PH domain. The data was fitted to the equation % bound=100-n×L/Klapp +L) where n is the % specific binding, L is the concentration of unlabeled lipid added and Klapp is the apparent competitive dissociation constant. The rations of the apparent dissociation constants accurately reflect the ratios of the true dissociation constants under the present experimental conditions (Rameh, L. E. et al., J. Biol. Chem., In Press).
The data depicted in FIG. 8 indicate that receptor signaling through PI3-kinases, which generates PtdIns(3,4,5)P3, may specifically regulate ARF proteins through GRP. In order to further test this, the relative binding affinities of PtdIns(3,4,5)P3 versus PtdIns (4,5)P2, which is constitutively present in cell membranes, for the PH domain of GRP were determined. A GST fusion protein of the PH domain of GRP was incubated with various concentrations of synthetic [^3 H]dioctanoyl PtdIns(3,4,5)P3 and binding was determined (FIG. 9A). These experiments show high affinity binding of this polyphosphoinositide,with a calculated Kd=0.5 μM.

ARF5 = settings: cited from earlier work
[1] = tested on: integrin β2 cytoplasmic domain; settings: through Sec7 homology region; cited from earlier work

Row | stimulation of ARF1 exchange activity in the presence of GRP (GRP; 0.05% cholate and 0.05% CHAPS (low negative charge)) | stimulation of ARF1 exchange activity in the presence of GRP (GRP; 0.1% cholate (high negative charge)) | affinity, fold lower than PtdIns(3,4,5)P3 (PH domain of GRP) | Molecule | recruitment of ARNO and stimulation of guanine nucleotide exchange on ARF1 (ARNO) | interaction with isolated PH domain of PLCγ1 (PH domain of PLCγ1) | ARF5 as substrate for cytohesin-1 (ARF5) | binding of the integrin β2 cytoplasmic domain [1]
1 | little or no effect | stimulated | 50 fold | PtdIns(4,5)P2 | causing stimulation of guanine nucleotide exchange on ARF1; also recorded: sufficient for its recruitment to membranes as well as activation of ARF exchange | high affinity | – | –
2 | – | – | – | cytohesin-1: B2-1 encoded protein (denoted cytohesin 1) (protein) MEEDDSYVPSDLTAEERQELENIRRRKQELLADIQRLKDEIAEVANEIENLGSTEERKNMQRNKQVAMGRKKFNMDPKKGIQFLIENDLLKNTCEDIAQFLYKGEGLNKTAIGDYLGERDEFNIQVLHAFVELHEFTDLNLVQALRQFLWSFRLPGEAQKIDRMMEAFAQRYCQCNNGVFQSTDTCYVLSFAIIMLNTSLHNPNVKDKPTVERFIAMNRGINDGGDLPEELLRNLYESIKNEPFKIPEDDGNDLTHTFFNPDREGWLLKLGGGRVKTWKRRWFILTDNCLYYFEYTTDKEPRGIIPLENLSIREVEDSKKPNCFELYIPDNKDQVIKACKTEADGRWEGNHTVYRISAPTPEEKEEWIKCIKAAISRDPFYEMLAARKKKVSSTKRH | – | – | not to be a substrate | high affinity
